Laboratory results as given in ChEMBL document CHEMBL1201862, “PubChem BioAssay data set” (2004).
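Five compound concentrations were applied to cells in 96-well plates for 48 hours; endpoints were derived by simple linear interpolation of the resulting dose-response curve. Here, GI50 denotes the concentration required for 50% inhibition of growth.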 The source made the active and inactive calls. No stated cut-off is given here; in the data, active = GI50 up to about 1.1 µM and inactive = higher. Residues, ends and D or L forms follow the SMILES beside them.

Columns and labels:
Assay in all cases: inhibition of tumour cell growth, NCI panel, 48 h
A549 = system: A549
ACHN = system: ACHN
BT-549 = system: BT-549
CAKI-1 = system: CAKI-1
EKVX = system: EKVX
LOX IMVI = system: LOX IMVI
MDA-MB-435 = system: MDA-MB-435
MOLT-4 = system: MOLT-4
Malme-3M = system: Malme-3M
NCI-H226 = system: NCI-H226
NCI-H522 = system: NCI-H522
SF-268 = system: SF-268
SF-295 = system: SF-295
SF-539 = system: SF-539
SW-620 = system: SW-620
UACC-257 = system: UACC-257
UACC-62 = system: UACC-62
UO-31 = system: UO-31
OVCAR-5 = system: OVCAR-5

Measured: GI50

CCOP(=O)(OCC)C(Nc1cccc(F)c1)c1ccccc1 (centres undefined)
inactive: A549 43.9 µM | ACHN 58.7 µM | BT-549 > 100 µM | CAKI-1 > 100 µM | EKVX 40.5 µM | LOX IMVI 75.7 µM | MDA-MB-435 78.9 µM | MOLT-4 30 µM | Malme-3M 50.7 µM | NCI-H226 93.5 µM | NCI-H522 36.1 µM | SF-268 59 µM | SF-295 54.7 µM | SF-539 > 100 µM | SW-620 > 10 µM | UACC-257 45.1 µM | UACC-62 63 µM | UO-31 44.8 µM

CC(C)(CO)CNc1cc(=O)[nH]c(N)n1
inactive: A549 > 100 µM | ACHN > 100 µM | BT-549 > 100 µM | CAKI-1 > 100 µM | EKVX > 100 µM | LOX IMVI > 100 µM | MDA-MB-435 > 100 µM | MOLT-4 > 100 µM | Malme-3M > 100 µM | NCI-H226 > 100 µM | NCI-H522 > 100 µM | OVCAR-5 > 100 µM | SF-268 > 100 µM | SF-295 > 100 µM | SW-620 > 100 µM | UACC-257 > 100 µM | UACC-62 > 100 µM | UO-31 > 100 µM

CC(C)=CCC[C@@H](C)C1=CC(=O)C(C)=C(O)C1=O [ISOPEREZONE]
inactive: A549 12.3 µM | ACHN 3.85 µM | BT-549 5.78 µM | CAKI-1 4.95 µM | EKVX 5.56 µM | LOX IMVI 2.83 µM | MDA-MB-435 4.31 µM | MOLT-4 1.71 µM | Malme-3M 10.2 µM | NCI-H226 7.19 µM | NCI-H522 1.36 µM | OVCAR-5 14.4 µM | SF-268 10.4 µM | SF-295 14.1 µM | SW-620 4.02 µM | UACC-257 10.9 µM | UACC-62 9.33 µM | UO-31 3.69 µM

O=C1Nc2ccccc2/C1=N/N=c1\cccc[nH]1
inactive: A549 48.8 µM | ACHN 11 µM | BT-549 43.6 µM | CAKI-1 32.8 µM | EKVX 14.5 µM | LOX IMVI 28.8 µM | MDA-MB-435 > 100 µM | MOLT-4 49.3 µM | NCI-H226 16.1 µM | NCI-H522 17.1 µM | OVCAR-5 51.5 µM | SF-268 35.4 µM | SF-295 51.9 µM | SW-620 > 100 µM | UACC-257 41.8 µM | UACC-62 65.5 µM | UO-31 12.1 µM

COC(=O)C(O)P(=O)(OC)OC (centres undefined)
inactive: A549 > 100 µM | ACHN > 100 µM | BT-549 > 100 µM | CAKI-1 > 100 µM | EKVX > 100 µM | LOX IMVI > 100 µM | MDA-MB-435 > 100 µM | MOLT-4 > 100 µM | Malme-3M > 100 µM | NCI-H226 > 100 µM | NCI-H522 > 100 µM | OVCAR-5 > 100 µM | SF-268 > 100 µM | SF-295 > 100 µM | SW-620 > 100 µM | UACC-257 > 100 µM | UACC-62 > 100 µM | UO-31 > 100 µM

CC(=O)Nc1ncc2c(n1)-c1ccccc1OC2c1ccccc1 (centres undefined)
inactive: A549 > 100 µM | ACHN 11 µM | BT-549 27.7 µM | CAKI-1 26.1 µM | EKVX 61 µM | LOX IMVI > 100 µM | MDA-MB-435 > 100 µM | MOLT-4 > 100 µM | NCI-H226 20.5 µM | NCI-H522 37.7 µM | OVCAR-5 > 100 µM | SF-268 15.4 µM | SF-295 32.2 µM | SF-539 13.2 µM | SW-620 > 100 µM | UACC-257 > 100 µM | UACC-62 14.1 µM | UO-31 > 100 µM

CNc1nc(=S)[nH]c2sc3c(c12)CCCC3
inactive: ACHN > 75 µM | BT-549 > 75 µM | CAKI-1 > 75 µM | EKVX 45.1 µM | LOX IMVI > 75 µM | MDA-MB-435 > 75 µM | MOLT-4 > 75 µM | Malme-3M > 75 µM | NCI-H226 > 75 µM | NCI-H522 > 75 µM | OVCAR-5 > 75 µM | SF-268 > 75 µM | SF-295 > 75 µM | SW-620 > 75 µM | UACC-257 > 75 µM | UACC-62 > 75 µM | UO-31 67 µM

CCC(C)C(NC(=O)C(CCCCN)NC(=O)C(NC(=O)C(CCC(N)=O)NC(=O)C(N)CCCNC(=N)N)C(C)CC)C(=O)NC(Cc1c[nH]c2ccccc12)C(=O)NC(Cc1ccccc1)C(=O)NC(CCC(N)=O)C(=O)NC(CC(N)=O)C(=O)NC(CCCNC(=N)N)C(=O)NC(CCCNC(=N)N)C(=O)NC(CCSC)C(=O)NC(CCCCN)C(=O)NC(Cc1c[nH]c2ccccc12)C(=O)NC(CCCCN)C(=O)NC(CCCCN)C(=O)N1CCCC1C(=O)NC(C)C(=O)NC(CCCCN)C(=O)NC(CCCNC(=N)N)C(=O)NC(CCCCN)C(=O)NC(CC(C)C)C(=O)NC(Cc1ccccc1)C(=O)NCC(=O)O (centres undefined) (H-RQIKIWFQNRRMKWKKPAKRKLFG-OH; configuration not given here)
inactive: A549 > 25 µM | ACHN > 25 µM | BT-549 > 25 µM | CAKI-1 > 25 µM | EKVX > 25 µM | LOX IMVI > 25 µM | MDA-MB-435 16 µM | MOLT-4 > 25 µM | Malme-3M 6.75 µM | NCI-H226 > 25 µM | NCI-H522 > 25 µM | OVCAR-5 > 25 µM | SF-268 15.9 µM | SF-295 > 25 µM | SW-620 > 25 µM | UACC-257 21.9 µM | UO-31 > 25 µM

OC(Cc1cccnc1)(c1ccccc1)c1ccccc1
inactive: A549 > 100 µM | ACHN > 100 µM | BT-549 73.6 µM | CAKI-1 > 100 µM | EKVX 17.8 µM | LOX IMVI > 100 µM | MDA-MB-435 47 µM | Malme-3M > 100 µM | NCI-H226 > 100 µM | NCI-H522 47 µM | OVCAR-5 > 100 µM | SF-268 > 100 µM | SF-295 53.8 µM | SW-620 > 100 µM | UACC-257 41.3 µM | UACC-62 91.6 µM | UO-31 > 100 µM

COc1nc(=O)n(C2CC(N=[N+]=[N-])C(CO)O2)cc1C (centres undefined)
inactive: A549 > 100 µM | ACHN > 100 µM | BT-549 > 100 µM | EKVX > 100 µM | LOX IMVI > 100 µM | MDA-MB-435 > 100 µM | MOLT-4 > 100 µM | Malme-3M > 100 µM | NCI-H226 > 100 µM | NCI-H522 > 100 µM | OVCAR-5 > 100 µM | SF-268 > 100 µM | SF-295 > 100 µM | SF-539 > 100 µM | SW-620 > 100 µM | UACC-257 > 100 µM | UACC-62 > 100 µM | UO-31 52 µM

CCOc1ccccc1/C=C1\NC(=O)N(/C=C2\C(=O)Oc3ccccc3C2=O)C1=O
inactive: A549 42.6 µM | ACHN 50.6 µM | BT-549 50.9 µM | CAKI-1 99.1 µM | EKVX 51.6 µM | LOX IMVI 63.7 µM | MDA-MB-435 42.6 µM | MOLT-4 26.7 µM | NCI-H226 35.5 µM | NCI-H522 29.2 µM | OVCAR-5 > 100 µM | SF-268 > 100 µM | SF-295 44.5 µM | SF-539 78.5 µM | SW-620 51.5 µM | UACC-257 40.1 µM | UACC-62 32.8 µM | UO-31 23.1 µM
